Measured values: the NIST ThermoML archive (doi:10.1016/j.fluid.2009.01.004)

Test: xn = mol fraction of the nth substance listed
Details: 101 kPa, Liquid, Capillary tube (Ostwald / Ubbelohde) method

CCN(CC)CC [triethylamine] + O
viscosity [mPa·s]
Details	x1 = 0.019	x1 = 0.042	x1 = 0.077	x1 = 0.106	x1 = 0.151	x1 = 0.21	x1 = 0.293	x1 = 0.415	x1 = 0.615	x1 = 1
283.15 K	2.52	4.075	5.547	6.629	6.651	5.635	4.242	2.821	1.84	0.4275
286.15 K	2.211	3.512	4.761	5.476	5.497	4.801	3.679	2.511	1.531	0.414
288.15 K	2.033	3.199	4.242	4.748	4.769	4.302	3.366	2.333	1.354	0.4051
290.15 K	1.875	2.948	3.764	4.07	4.092	3.85	3.115	2.175	1.195	0.3961
291.15 K	1.804	2.846	3.53	3.751	3.773	3.644	3.013	2.104	1.124	0.3917
291.35 K	1.792	2.831	3.482	3.677	3.699	3.611	2.998	2.093	1.113	0.391

O [water] + CCN(CC)CC
x2 = 0
Details	viscosity [mPa·s]
283.15 K	1.306
286.15 K	1.206
288.15 K	1.144
290.15 K	1.085
291.15 K	1.058
291.35 K	1.053
